Source: ChEMBL document CHEMBL5053492, “Discovery of tert-amine-based RORγt agonists” (Eur J Med Chem, 2021)

Key:
[1] = biological target: T1, Nuclear receptor ROR-gamma (Homo sapiens, UniProt P51449); assay: Agonist activity at human RORgammat LBD expressed in HEK293T cells assessed as increase in Gal4 reporter gene transcription measured after 16 to 20 hrs by luciferase reporter gene assay; format: cell-based
T1 sequence (P51449 whole entry): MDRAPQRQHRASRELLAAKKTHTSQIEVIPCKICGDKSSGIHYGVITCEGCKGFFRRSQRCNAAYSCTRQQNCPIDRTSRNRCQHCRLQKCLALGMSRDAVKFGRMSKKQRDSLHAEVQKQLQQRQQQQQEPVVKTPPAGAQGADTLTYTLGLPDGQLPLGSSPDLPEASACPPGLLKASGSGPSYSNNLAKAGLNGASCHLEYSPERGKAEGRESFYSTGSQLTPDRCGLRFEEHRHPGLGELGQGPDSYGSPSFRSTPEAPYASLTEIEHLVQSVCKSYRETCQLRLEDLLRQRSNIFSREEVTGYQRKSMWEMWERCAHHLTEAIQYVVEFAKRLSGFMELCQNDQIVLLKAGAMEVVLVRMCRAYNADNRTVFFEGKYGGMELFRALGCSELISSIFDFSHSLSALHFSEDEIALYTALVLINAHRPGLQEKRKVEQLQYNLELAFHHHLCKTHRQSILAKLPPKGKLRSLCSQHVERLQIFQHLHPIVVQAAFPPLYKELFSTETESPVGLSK

[2] = biological target: T2, Nuclear receptor ROR-gamma (Mus musculus) (UniProt P51450); assay: Agonist activity at RORgammat in mouse CD4+ T cells assessed as induction of Th17 cells differentiation by measuring increase in IL17 production at 250 nM measured after 4 days by intracellular staining based flow cytometry (reference value: 16.5 %); format: cell-based; settings: CD4+ve Th, time 4.0 day
T2 sequence (whole entry): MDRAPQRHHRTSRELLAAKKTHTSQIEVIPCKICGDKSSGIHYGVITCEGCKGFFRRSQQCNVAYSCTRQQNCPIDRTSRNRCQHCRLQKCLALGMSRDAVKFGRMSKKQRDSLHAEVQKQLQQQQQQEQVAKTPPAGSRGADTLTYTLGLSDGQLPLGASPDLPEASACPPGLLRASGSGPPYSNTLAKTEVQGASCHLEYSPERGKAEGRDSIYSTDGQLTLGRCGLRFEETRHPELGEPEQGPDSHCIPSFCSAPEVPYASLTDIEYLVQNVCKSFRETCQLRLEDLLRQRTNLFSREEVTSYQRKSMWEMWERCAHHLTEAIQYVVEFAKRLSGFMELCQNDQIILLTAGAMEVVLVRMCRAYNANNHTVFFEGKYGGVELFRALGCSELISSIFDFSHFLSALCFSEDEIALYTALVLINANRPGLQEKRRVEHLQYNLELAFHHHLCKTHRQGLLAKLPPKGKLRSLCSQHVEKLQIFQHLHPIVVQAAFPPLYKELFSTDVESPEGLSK

[3] = biological target: T1, Nuclear receptor ROR-gamma; assay: Agonist activity at APC-labeled RORgammat LBD (unknown origin) incubated for 1 hr in presence of europium labeled co-activator SRC1 by dual FRET assay

Row | SMILES | EC50 [3] [nM] | other results
1 | CCCN(Cc1ccc(NC(=O)Cc2ccc(S(C)(=O)=O)cc2)cc1Cl)CC1CCCCC1 | – | EC50 [1]: 283 nM; Activity [2]: 21.9%
2 | CCCN(Cc1ccc(NC(=O)Cc2ccc(S(=O)(=O)CC)cc2)cc1)CC1CCCC1 | 109 | –
3 | CCCN(Cc1ccc(NC(=O)Cc2ccc(S(=O)(=O)CC)cc2)cc1)Cc1ccccc1C | 11.6 | –
4 | CCCN(CCc1ccccc1)c1ccc(NC(=O)Cc2ccc(S(=O)(=O)CC)cc2)cc1 | 11.6 | –
5 | CCCN(Cc1ccc(NC(=O)Cc2ccc(S(=O)(=O)CC)cc2)cc1)Cc1nccs1 | > 30000 | –
6 | CCCN(Cc1ccccc1)Cc1ccc(NC(=O)Cc2ccc(S(=O)(=O)CC)cn2)cc1 | 7100 | –
7 | CCCN(Cc1c(Cl)cc(NC(=O)Cc2ccc(S(C)(=O)=O)cc2)cc1Cl)CC1CCCCC1 | – | EC50 [1]: 382 nM
8 | CCCN(Cc1ccccc1)Cc1ccc(NC(=O)NCc2ccc(S(=O)(=O)CC)cc2)cc1 | 58 | –
9 | CCCN(Cc1ccccc1)Cc1ccc(NCCc2ccc(S(=O)(=O)CC)cc2)cc1 | 33.6 | –
10 | CCCN(Cc1ccc(NC(=O)Cc2ccc(S(=O)(=O)CC)cc2)cc1)CC1CCOCC1 | 86.2 | –
11 | CCCN(Cc1ccc(NC(=O)Cc2ccc(S(=O)(=O)CC)cc2)cc1)CC1CCC(F)(F)CC1 | 79.6 | –
12 | CCCN(Cc1ccccc1)Cc1ccc(NC(=O)Cc2ccc(S(C)(=O)=O)cc2)cc1 | 43.1 | –
13 | CCCN(Cc1ccc(NC(=O)Cc2ccc(S(=O)(=O)CC)cc2)cc1)Cc1cccnc1 | 40.2 | –
14 | CCCN(Cc1ccc(NC(=O)Cc2ccc(S(=O)(=O)CC)cc2)cc1)Cc1cccs1 | 29.1 | –
15 | CCS(=O)(=O)c1ccc(CC(=O)Nc2ccc(CN(Cc3ccccc3)CC3CCC3)cc2)cc1 | 7.1 | –
16 | CCS(=O)(=O)c1ccc(CC(=O)Nc2ccc(CN(Cc3ccccc3)CC3CC3)c(Cl)c2)cc1 | 8 | –
17 | CCCN(Cc1ccccc1)Cc1c(Cl)cc(NC(=O)Cc2ccc(S(=O)(=O)CC)cc2)cc1Cl | 8.2 | –
18 | CCS(=O)(=O)c1ccc(CC(=O)Nc2ccc(NCCc3ccccc3)cc2)cc1 | 55.2 | –

Row | SMILES | EC50 [3] [nM] | other results
19 | CCCCN(Cc1ccccc1)Cc1ccc(NC(=O)Cc2ccc(S(=O)(=O)CC)cc2)cc1 | 11.1 | –
20 | CCCN(Cc1ccc(NC(=O)Cc2ccc(S(=O)(=O)CC)cc2)cc1)CC1CCC1 | 291 | –
21 | CCN(Cc1ccccc1)Cc1ccc(NC(=O)Cc2ccc(S(=O)(=O)CC)cc2)cc1 | 36.3 | –
22 | CCCN(Cc1ccc(Cl)cc1)Cc1ccc(NC(=O)Cc2ccc(S(=O)(=O)CC)cc2)cc1 | 16.8 | –
23 | CCCN(Cc1ccc(NC(=O)Cc2ccc(S(=O)(=O)CC)cc2)cc1)CC1CCCO1 (stereo unspecified) | 285 | –
24 | CCCN(Cc1ccc(NC(=O)Cc2ccc(S(=O)(=O)CC)cc2)cc1)Cc1ccccc1F | 9.4 | –
25 | CCCN(Cc1ccccc1)Cc1ccc(C(=O)NCc2ccc(S(=O)(=O)CC)cc2)cc1 | 9.2 | –
26 | CCCN(Cc1ccc(NC(=O)Cc2ccc(S(C)(=O)=O)cc2)cc1)CC1CCCCC1 | – | EC50 [1]: 277 nM
27 | CCCN(Cc1ccc(NC(=O)Cc2ccc(S(=O)(=O)CC)cc2)cc1)Cc1ccccc1Cl | 16.9 | –
28 | CCCN(Cc1ccccc1)Cc1ccc(NC(=O)Cc2ccc(C#N)cc2)cc1 | 346 | –
29 | CCCN(Cc1ccc(NC(=O)Cc2ccc(S(=O)(=O)CC)cc2)cc1)CC1CC1 | 6530 | –
30 | CCCN(Cc1ccccc1)Cc1ccc(NC(=O)Cc2ccc(S(=O)(=O)CC)cc2)cc1Cl | 8.7 | –
31 | CCS(=O)(=O)c1ccc(CC(=O)Nc2ccc(CNCc3ccccc3)cc2)cc1 | > 30000 | –
32 | CCS(=O)(=O)c1ccc(CC(=O)Nc2ccc(CN(Cc3ccccc3)CC3CC3)cc2)cc1 | 14 | –
33 | CCS(=O)(=O)c1ccc(CC(=O)Nc2ccc(CN(C)Cc3ccccc3)cc2)cc1 | 101 | –
34 | CCCN(Cc1ccccc1)Cc1ccc(NC(=O)Cc2ccc(C(=O)O)cc2)cc1 | > 30000 | –
35 | CCCN(Cc1ccccc1)Cc1ccc(NC(=O)Cc2ccccc2)cc1 | 2170 | –
